Legend:
Format in all cases: in vivo, Musa
bananas [1] = experiment: Example 2C: evaluation process C (22° C. after MCP); crown mold and crown rot; conditions: 7 days in bag at approx. 22° C., rating 0-3
Text: Bananas may be inspected for the incidence of crown mold. Crown mold is observed and given a numerical rating as follows: 0 (apparently healthy and disease-free fruit); 1 (mycelia not easily detectable with naked eye, but obvious slight disease is visible on the crown); 2 (presence of some visible mycelia on the crown and moderate disease damage on the crown; 3 (clearly visible mycelia on the crown with severe disease damage on the crown).
Bananas may be inspected for the incidence of crown rot. When disease damage is apparent but no fungus is visible, crown rot is reported, with the degree of damage assessed as follows: 0 (apparently healthy and disease-free fruit); 1 (obvious slight disease is visible on the crown); 2 (moderate disease damage on the crown; 3 (severe disease damage on the crown).
(§1) Bananas were harvested at 13 weeks of age. Fruit bunches were separated into hands, then washed, and excess latex was removed in chlorinated water tanks using standard commercial practices. The washed hands of bananas were further broken into clusters and treated with fungicide. Clusters were placed into plastic bags; each bag held approximately 1.4 kg (3 lbs) of bananas. The bananas remained in these bags until they were removed for evaluation (see below).
(§2) At day 5 at approximately 4 pm, the bananas had reached color stage 2.5 to 3.5. Treatment groups PE-3-C, PE-10-C, MAP-3, and MAP-10 were then exposed to 1-MCP overnight at the concentrations shown above.
Some of the bananas from each group described in Example 2 were evaluated by process “C” as follows: After treatment groups PE-3-C, PE-10-C, MAP-3, and MAP-10 received exposure to 1-MCP, the bananas remained in their bags and were held at approximately 22° C. The bananas were inspected daily while they remained in the bags.
After 7 days at approximately 22° C., results were as follows: […]

bananas [2] = experiment: Example 2B: evaluation process B (3 days post-MCP); conditions: MAP-3 and MAP-10 groups (MAP bag, 300 or 1000 ppb 1-MCP); 3 days in bag at 14° C.
Text: as §1, §2
This Example was the same as Example 2A, except that after exposure to 1-MCP, the bananas remained in their bags in the holding room at 14° C. for 3 days instead of 4 days.

bananas [3] = experiment: Example US-7c: various number of bananas per bag (day on which sugar spots developed); conditions: for SS day (day during holding at 17.8° C. on which sugar spots developed): MAP/MCP: MAP type M, 1,000 ppb 1-MCP
Description: Bananas were handled and tested as in Example US-1, except that the number of bananas (“# of B”) per bag was varied. Results for MAP bags type M were compared at 0 1-MCP (“MAP only”) and at 1,000 ppb of 1-MCP (“MAP/MCP”). MAP only samples are comparative; MAP/MCP samples exemplify the present invention.
Also, the sugar spots were assessed. In this experiment, the number of the day during the holding at 17.8° C. on which sugar spots developed is noted (“SS day”). Bananas in T-bags (with either 0 or 1,000 ppb of 1-MCP) developed sugar spots on day 3.

bananas [4] = experiment: Example US-1: bananas transferred to MAP after shipment
Text: Bananas were harvested and shipped in to Ephrata, Pa., using standard commercial practices, in standard commercial shipping bags. For shipping, bags were placed in cartons; each carton held sufficient bags so that there were approximately 18.1 kg (40 lb.) of bananas in each carton.
After arrival in Ephrata, Pa., bananas were removed from the bags in which they were shipped and placed into new bags, which were either MAP (as described above) or T-bags (as described above). The new bags held approximately 1.3 kg (3 lb.) each. The new bags were twisted and secured shut. Bags were exposed to the 5-day ripening method used in Example 2 above. After ripening, the bags were transported to Spring House, Pa. in a refrigerated truck. Upon arrival, color stage of the bananas was 3.5 to 4.5. Bags were then placed into sealed tents for 12 hours at 13.3° C. […] After that 12-hour period, samples were aired for 1 hour and then kept in place at 13.3° C. (56° F.) for 10 hours and then transferred to an evaluation room, which was maintained at 17.8° C. (64° F.).
All bags remained in the evaluation room for 8 days. Bananas were visually inspected each day, whether they were still in bags or not. The bags were divided into three groups: • A. remained in the bags for 3 days, then removed from the bags for the remaining 5 days; • B. remained in the bags for 4 days, then removed from the bags for the remaining 4 days. • C. remained in the bags for 8 days, then removed on the eighth day for evaluation.

[5] = MAP-10: MAP bag, 1000 ppb 1-MCP
[6] = PE-10-C: PE bag, 1000 ppb 1-MCP

CC1=CC1 [1-MCP, 1-methylcyclopropene] was tested, and the “Crown Mold” value (bananas [1]; MAP-3: MAP bag, 300 ppb 1-MCP) was 1.04, the “Crown Rot” value (bananas [1]; MAP-3: MAP bag, 300 ppb 1-MCP) was 1.18 and the “Crown Mold” value (bananas [1]; [5]) was 1.00. The “Crown Rot” value (bananas [1]; [5]) was 1.18, the “Crown Mold” value (bananas [1]; PE-3-C: PE bag, 300 ppb 1-MCP) was 1.50 and the “Crown Rot” value (bananas [1]; PE-3-C: PE bag, 300 ppb 1-MCP) was 1.72. The “Crown Mold” value (bananas [1]; [6]) was 1.09, the “Crown Rot” value (bananas [1]; [6]) was 1.27 and the “color and sugar spots versus comparative examples” value (bananas [2]) was “same type of improvements over the comparative examples as in Example 2A”. The “SS day (day during holding at 17.8° C. on which sugar spots developed)” value (bananas [3]; # of B 1) was 4, the “SS day (day during holding at 17.8° C. on which sugar spots developed)” value (bananas [3]; # of B 3) was 5 and the “SS day (day during holding at 17.8° C. on which sugar spots developed)” value (bananas [3]; # of B 5) was 6. For the same molecule, the “SS day (day during holding at 17.8° C. on which sugar spots developed)” value (bananas [3]; # of B 7) was 8, the “SS day (day during holding at 17.8° C. on which sugar spots developed)” value (bananas [3]; # of B 9) was 8 and the “SS day (day during holding at 17.8° C. on which sugar spots developed)” value (bananas [3]; # of B 12) was 8. The “day on which sugar spots developed” value (bananas [3]; T-bags, 1,000 ppb of 1-MCP) was 3, the “development of color and sugar spots” value (bananas [4]; 1000 ppb versus 300 ppb 1-MCP in the same type of bag) was “slower development of color and sugar spots” and the “extension of shelf life, compared to T bags with no 1-MCP” value (bananas [4]; MAP with non-zero 1-MCP) was 8 days. For the same molecule, the “development of color and sugar spots after removal from bags” value (bananas [4]; MAP, 300 ppb or 1000 ppb 1-MCP versus MAP with zero 1-MCP) was “slower development of color and sugar spots”, the “development of color and sugar spots” value (bananas [4]; MAP, 300 ppb or 1000 ppb 1-MCP versus T-bags) was “much slower development of color and sugar spots” and the “development of color and sugar spots” value (bananas [4]; T-bags, 300 ppb or 1000 ppb 1-MCP versus zero) was “slower development of color and sugar spots”.
